From patent publication US4312605A, “Method for grouting joints and/or cracks in sewer conduits” (Hayward Baker Company, priority 1980, dated 1982)

Experiments:
albino rats [1] = experiment: Acute toxicity (LD50) of grout monomers; type: in vivo; conditions: from LD50 of MBA vs acrylamide
[2] = Precipitation of crosslinker from aqueous monomer solution; type: physicochemical; conditions: based on total metal acrylate salt; aqueous monomer solution 20-40% solids, especially if shaken
albino rats [3] = conditions: cited from earlier work
[4] = cited from earlier work
[5] = Gel time of grout mixtures after mixing components A and B; type: physicochemical; conditions: used instead of MgA in the monomer composition
Method: To 50 parts of each of the stock solutions a, b, c, d, and e, there is added 1.0 part of TEA (95% in water) and to another 50 parts of each of the stock solutions, there is added 2.0 parts of TEA (95% in water). The resulting ten solutions containing TEA, the latter five having twice as much TEA as the first five, are examples of component A that can be mixed with an approximately equal volume of initiator component B which in its simplest make-up consists of a solution in water of ammonium persulfate (AP).
The component B that is used with each of the first five of the TEA/monomer component A solutions is a solution of 2% AP in water, approximately 50 parts of the 2% AP solution being mixed, as at the discharge header of a packer, with 50 parts of the respective component A solution. These first five A and B mixtures when used in the field at about 20° (68° F.) have gel times of about 30 seconds. The component B made up for use with the last group of five TEA/monomer components A is a solution of 4% AP in water. When the latter AP solution is forced at approximately a rate of 50 parts for each 50 parts of a respective one of the last five TEA/monomer component A solutions through separate feed lines to the packer at field temperatures of about 10° (50° F.), the grout mixtures A and B give approximately 30-second gel times.

[6] = 4 to 25% calcium acrylate based on dry soil weight, redox catalyst; U.S. Pat. No. 2,651,619; cited from earlier work

SMILES: C=CC(=O)NCNC(=O)C=C [MBA, N,N'-methylenebisacrylamide]
- monomer toxicity (factor relative to acrylamide) (albino rats [1]): 1/2
- amount of crosslinker above which it tends to precipitate [2]: about 4 % by weight
- LD50 (albino rats [3]): 390 mg/kg
- neurotoxicity ([4]; at dose schedules and conditions employed (MRI Project No. 4308-N, page 287)): not neurotoxic

SMILES: C=CC(=O)O [calcium acrylate (CaA), calcium acrylate]
- gel time (in words) [5]: long gel time
- compressive strength of stabilized soil [6]: up to 600 psi

SMILES: C=CC(N)=O [acrylamide]
- neurotoxicity (general statement) ([4]; in vivo): a neurotoxic chemical
